Test results as given in patent US11713306B2, “5-substituted difluoropiperidine compounds with blood-brain barrier penetrable capability” (Wayshine Biopharm Holding Limited, priority 2018, dated 2023).

Target: FYN (Homo sapiens (Human), UniProt P06241)
Assay: Kinase inhibition assay (Caliper, FAM-labeled peptide substrate)
Type: biochemical
Method: 2.5 times of the kinase (VEGFR2 or EGFR or FYN) buffer solution was added to the compound diluted in equal concentration in the 384-well plate and incubated at 22-27° C. for 10 minutes, then 2.5 times of the FAM-labeled peptide substrate and ATP buffer solution were added therein and incubated at 28° C., and then the stop buffer solution was added to stop the reaction. The data was read by Caliper and the following formula was used to calculate the IC50 inhibition: Percent inhibition=(max-conversion)/(max-min)*100. Staurosporine was used as a control. In kinase inhibition assays, some of the compounds of the present invention are effective in inhibiting VEGFR2/FYN/EGFR, so they have the potential for treating or preventing cancer or central nervous system diseases (Table 1).

Chain of FYN (P06241 whole entry): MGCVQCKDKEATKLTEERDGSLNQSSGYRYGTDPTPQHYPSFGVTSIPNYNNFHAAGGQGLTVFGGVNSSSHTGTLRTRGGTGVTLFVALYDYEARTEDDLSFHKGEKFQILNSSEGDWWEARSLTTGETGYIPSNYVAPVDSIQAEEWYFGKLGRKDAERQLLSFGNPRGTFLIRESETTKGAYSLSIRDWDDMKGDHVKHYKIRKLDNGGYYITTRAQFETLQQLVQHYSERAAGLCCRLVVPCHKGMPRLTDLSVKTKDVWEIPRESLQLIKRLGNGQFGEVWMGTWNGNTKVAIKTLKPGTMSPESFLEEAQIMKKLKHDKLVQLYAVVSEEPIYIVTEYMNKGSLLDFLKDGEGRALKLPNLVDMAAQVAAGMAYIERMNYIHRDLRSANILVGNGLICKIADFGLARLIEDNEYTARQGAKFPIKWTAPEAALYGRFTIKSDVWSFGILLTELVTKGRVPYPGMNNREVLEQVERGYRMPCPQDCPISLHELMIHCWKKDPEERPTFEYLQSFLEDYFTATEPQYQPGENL

SMILES | IC50 [nM]
COc1cc(OC2CCN(C)CC2(F)F)c2c(Nc3c(Cl)ccc4c3OCO4)ncnc2c1 (racemic) [Compound 4, (R/S)—N-(5-chlorobenzo[d][1,3]dioxolcyclopenten-4-yl)-5-((3,3-difluoro-1-methylpiperidin-4-yl)oxy)-7-methoxyquinazolin-4-amine] | < 100
COc1cc(OC2CCN(C)CC2(F)F)c2c(Nc3c(F)ccc4c3OCO4)ncnc2c1 (racemic) [Compound 5, (R/S)—N-(5-fluorobenzo[d][1,3]dioxolcyclopenten-4-yl)-5-((3,3-difluoro-1-methylpiperidin-4-yl)oxy)-7-methoxyquinazolin-4-amine] | < 100
CCOc1cc(OC2CCN(C)CC2(F)F)c2c(Nc3c(F)ccc4c3OCO4)ncnc2c1 (racemic) [Compound 6, (R/S)—N-(5-fluorobenzo[d][1,3]dioxolcyclopenten-4-yl)-5-((3,3-difluoro-1-methylpiperidin-4-yl)oxy)-7-ethoxyquinazolin-4-amine] | < 100
COc1cc(OC2CCN(C)CC2(F)F)c2c(Nc3c(F)ccc4c3OCO4)ncnc2c1 (racemic) [Compound 7, (R/S)—N-(5-fluorobenzo[d][1,3]dioxolcyclopenten-4-yl)-5-((3,3-difluoro-1-methylpiperidin-4-yl)oxy)-7-deuterated methoxyquinazolin-4-amine] | < 100
COc1cc(OC2CCN(C)CC2(F)F)c2c(Nc3cc(OC)c(Cl)cc3F)ncnc2c1 (racemic) [Compound 8, (R/S)—N-(4-chloro-2-fluoro-5-methoxyphenyl)-5-((3,3-difluoro-1-methylpiperidin-4-yl)oxy)-7-methoxyquinazolin-4-amine] | < 100
CCOc1cc(OC2CCN(C)CC2(F)F)c2c(Nc3c(Cl)ccc4c3OCO4)ncnc2c1 (racemic) [Compound 9, (R/S)—N-(5-chlorobenzo[d][1,3]dioxolcyclopenten-4-yl)-5-((3,3-difluoro-1-methylpiperidin-4-yl)oxy)-7-ethoxyquinazolin-4-amine] | < 100
CCN1CCC(Oc2cc(OC)cc3ncnc(Nc4c(F)ccc5c4OCO5)c23)C(F)(F)C1 (racemic) [Compound 10, (R/S)-5-((1-ethyl-3,3-difluoropiperidin-4-yl)oxy)-N-(5-fluorobenzo[d] [1,3]dioxolcyclopenten-4-yl)-7-methoxyquinazolin-4-amine] | < 100
COc1cc(OC2CCN(C)CC2(F)F)c2c(Nc3c(Cl)ccc4c3OCO4)ncnc2c1 (racemic) [Compound 12, (R/S)—N-(5-chlorobenzo[d] [1,3]dioxolcyclopenten-4-yl)-5-((3,3-difluoro-1-methylpiperidin-4-yl)oxy)-7-deuterated methoxyquinazolin-4-amine] | < 100
COc1cc(OC2CCN(C3COC3)CC2(F)F)c2c(Nc3c(F)ccc4c3OCO4)ncnc2c1 (racemic) [Compound 13, (R/S)-5-((3,3-difluoro-1-(oxetane-3-yl)piperidin-4-yl)oxy)-N-(5-fluorobenzo[d][1,3]dioxolcyclopenten-4-yl)-7-methoxyquinazolin-4-amine] | < 100
COc1cc(OC2CCN(C3COC3)CC2(F)F)c2c(Nc3c(Cl)ccc4c3OCO4)ncnc2c1 (racemic) [Compound 14, (R/S)-5-((3,3-difluoro-1-(oxetane-3-yl)piperidin-4-yl)oxy)-N-(5-chlorobenzo[d][1,3]dioxolcyclopenten-4-yl)-7-methoxyquinazolin-4-amine] | < 100
COc1cc(OC2CCN(C(C)C)CC2(F)F)c2c(Nc3c(F)ccc4c3OCO4)ncnc2c1 (racemic) [Compound 15, (R/S)-5-((3,3-difluoro-1-isopropylpiperidin-4-yl)oxy)-N-(5-fluorobenzo[d][1,3]dioxolcyclopenten-4-yl)-7-methoxyquinazolin-4-amine] | < 100
COc1cc(O[C@@H]2CCN(C)CC2(F)F)c2c(Nc3c(Cl)ccc4c3OCO4)ncnc2c1 [Compound 20, (R)—N-(5-chlorobenzo[d][1,3]dioxolcyclopenten-4-yl)-5-((3,3-difluoro-1-methylpiperidin-4-yl)oxy)-7-methoxyquinazolin-4-amine] | < 100
COc1cc(O[C@@H]2CCN(C)CC2(F)F)c2c(Nc3c(F)ccc4c3OCO4)ncnc2c1 [Compound 21, (R)—N-(5-fluorobenzo[d][1,3]dioxolcyclopenten-4-yl)-5-((3,3-difluoro-1-methylpiperidin-4-yl)oxy)-7-methoxyquinazolin-4-amine] | < 100
CCOc1cc(O[C@@H]2CCN(C)CC2(F)F)c2c(Nc3c(F)ccc4c3OCO4)ncnc2c1 [Compound 22, (R)—N-(5-fluorobenzo[d][1,3]dioxolcyclopenten-4-yl)-5-((3,3-difluoro-1-methylpiperidin-4-yl)oxy)-7-ethoxyquinazolin-4-amine] | < 100
COc1cc(O[C@@H]2CCN(C)CC2(F)F)c2c(Nc3c(F)ccc4c3OCO4)ncnc2c1 [Compound 23, (R)—N-(5-fluorobenzo[d][1,3]dioxolcyclopenten-4-yl)-5-((3,3-difluoro-1-methylpiperidin-4-yl)oxy)-7-deuterated methoxyquinazolin-4-amine] | < 100
COc1cc(O[C@@H]2CCN(C)CC2(F)F)c2c(Nc3cc(OC)c(Cl)cc3F)ncnc2c1 [Compound 24, (R)—N-(4-chloro-2-fluoro-5-methoxyphenyl)-5-((3,3-difluoro-1-methylpiperidin-4-yl)oxy)-7-methoxyquinazolin-4-amine] | < 100
CCOc1cc(O[C@@H]2CCN(C)CC2(F)F)c2c(Nc3c(Cl)ccc4c3OCO4)ncnc2c1 [Compound 25, (R)—N-(5-chlorobenzo[d][1,3]dioxolcyclopenten-4-yl)-5-((3,3-difluoro-1-methylpiperidin-4-yl)oxy)-7-ethoxyquinazolin-4-amine] | < 100
CCN1CC[C@@H](Oc2cc(OC)cc3ncnc(Nc4c(F)ccc5c4OCO5)c23)C(F)(F)C1 [Compound 26, (R)-5-((1-ethyl-3,3-difluoropiperidin-4-yl)oxy)-N-(5-fluorobenzo[d] [1,3]dioxolcyclopenten-4-yl)-7-methoxyquinazolin-4-amine] | < 100

More lines, now with the values ahead:

IC50 [nM] | SMILES
< 100 | COc1cc(O[C@@H]2CCN(C)CC2(F)F)c2c(Nc3c(Cl)ccc4c3OCO4)ncnc2c1 [Compound 28, (R)—N-(5-chlorobenzo[d] [1,3]dioxolcyclopenten-4-yl)-5-((3,3-difluoro-1-methylpiperidin-4-yl)oxy)-7-deuterated methoxyquinazolin-4-amine]
< 100 | COc1cc(O[C@@H]2CCN(C3COC3)CC2(F)F)c2c(Nc3c(F)ccc4c3OCO4)ncnc2c1 [Compound 29, (R)-5-((3,3-difluoro-1-(oxetane-3-yl)piperidin-4-yl)oxy)-N-(5-fluorobenzo[d] [1,3]dioxolcyclopenten-4-yl)-7-methoxyquinazolin-4-amine]
< 100 | COc1cc(O[C@@H]2CCN(C3COC3)CC2(F)F)c2c(Nc3c(Cl)ccc4c3OCO4)ncnc2c1 [Compound 30, (R)-5-((3,3-difluoro-1-(oxetane-3-yl)piperidin-4-yl)oxy)-N-(5-chlorobenzo[d][1,3]dioxolcyclopenten-4-yl)-7-methoxyquinazolin-4-amine]
< 100 | COc1cc(O[C@@H]2CCN(C(C)C)CC2(F)F)c2c(Nc3c(F)ccc4c3OCO4)ncnc2c1 [Compound 31, (R)-5-((3,3-difluoro-1-isopropylpiperidin-4-yl)oxy)-N-(5-fluorobenzo[d] [1,3]dioxolcyclopenten-4-yl)-7-methoxyquinazolin-4-amine]
< 100 | COc1cc(O[C@H]2CCN(C)CC2(F)F)c2c(Nc3c(Cl)ccc4c3OCO4)ncnc2c1 [Compound 36, (S)—N-(5-chlorobenzo[d][1,3]dioxolcyclopenten-4-yl)-5-((3,3-difluoro-1-methylpiperidin-4-yl)oxy)-7-methoxyquinazolin-4-amine]
< 100 | COc1cc(O[C@H]2CCN(C)CC2(F)F)c2c(Nc3c(F)ccc4c3OCO4)ncnc2c1 [Compound 37, (S)—N-(5-fluorobenzo[d][1,3]dioxolcyclopenten-4-yl)-5-((3,3-difluoro-1-methylpiperidin-4-yl)oxy)-7-methoxyquinazolin-4-amine]
< 100 | CCOc1cc(O[C@H]2CCN(C)CC2(F)F)c2c(Nc3c(F)ccc4c3OCO4)ncnc2c1 [Compound 38, (S)—N-(5-fluorobenzo[d][1,3]dioxolcyclopenten-4-yl)-5-((3,3-difluoro-1-methylpiperidin-4-yl)oxy)-7-ethoxyquinazolin-4-amine]
< 100 | COc1cc(O[C@H]2CCN(C)CC2(F)F)c2c(Nc3c(F)ccc4c3OCO4)ncnc2c1 [Compound 39, (S)—N-(5-fluorobenzo[d][1,3]dioxolcyclopenten-4-yl)-5-((3,3-difluoro-1-methylpiperidin-4-yl)oxy)-7-deuterated methoxyquinazolin-4-amine]
< 100 | COc1cc(O[C@H]2CCN(C)CC2(F)F)c2c(Nc3cc(OC)c(Cl)cc3F)ncnc2c1 [Compound 40, (S)—N-(4-chloro-2-fluoro-5-methoxyphenyl)-5-((3,3-difluoro-1-methylpiperidin-4-yl)oxy)-7-methoxyquinazolin-4-amine]
< 100 | CCOc1cc(O[C@H]2CCN(C)CC2(F)F)c2c(Nc3c(Cl)ccc4c3OCO4)ncnc2c1 [Compound 41, (S)—N-(5-chlorobenzo[d][1,3]dioxolcyclopenten-4-yl)-5-((3,3-difluoro-1-methylpiperidin-4-yl)oxy)-7-ethoxyquinazolin-4-amine]
< 100 | CCN1CC[C@H](Oc2cc(OC)cc3ncnc(Nc4c(F)ccc5c4OCO5)c23)C(F)(F)C1 [Compound 42, (S)-5-((1-ethyl-3,3-difluoropiperidin-4-yl)oxy)-N-(5-fluorobenzo[d] [1,3]dioxolcyclopenten-4-yl)-7-methoxyquinazolin-4-amine]
